For 39 molecules, logP results are on record in the OPERA property sets (Mansouri et al. 2018).

Molecule `COc1ccc2c(c1)NC(CCC(=O)O)=NS2(=O)=O` yielded a logP of 0.18.
Under `O=C(O)CCCC1=NS(=O)(=O)c2cc(Cl)ccc2N1` stands 0.83.
Under `O=C(O)CCC1=NS(=O)(=O)c2ccc(Cl)cc2N1` stands 0.72.
The result for `Cc1ccc2c(c1)NC(SCCC(=O)O)=NS2(=O)=O` reads 1.16; that for `O=C(O)CSC1=NS(=O)(=O)c2ccc(C(F)(F)F)cc2N1`, 1.62; that for `O=C(O)CCC1=NS(=O)(=O)c2ccc(C(F)(F)F)cc2N1`, 1.3.
Consider `O=C(O)CCSC1=NS(=O)(=O)c2cc(Br)ccc2N1`, for which the log partition coefficient (logP) is 1.77.
For `O=C(O)CCSC1=NS(=O)(=O)c2ccc(Cl)cc2N1`, the logP is 1.6.
The result for `O=C(O)CCC1=NS(=O)(=O)c2cc(Cl)ccc2N1` reads 0.69; that for `O=C(O)CSC1=NS(=O)(=O)c2ccc(Cl)cc2N1`, 0.82.
Under `O=C(O)CCSC1=NS(=O)(=O)c2cc(Cl)c(Cl)cc2N1` stands 1.81; under `O=C(O)CCCC1=NS(=O)(=O)c2ccc(Cl)cc2N1`, 0.83.
The result for `O=C(O)CSC1=NS(=O)(=O)c2cc(Cl)ccc2N1` reads 0.72.
Molecule `O=C(O)CSC1=NS(=O)(=O)c2cc(Br)cc(Br)c2N1` showed a logP of 1.16.
Under `O=C(O)CCSC1=NS(=O)(=O)c2ccccc2N1` stands 0.66; under `Cc1ccc2c(c1)NC(CCCC(=O)O)=NS2(=O)=O`, 0.33; under `O=C(O)CCCC1=NS(=O)(=O)c2cc(Cl)cc(Cl)c2N1`, 1.22.
`O=C(O)CCSC1=NS(=O)(=O)c2cc(Br)cc(Br)c2N1` gave a lipophilicity (logP) of 2.04.
As for `O=C(O)CCC1=NS(=O)(=O)c2cc(Br)ccc2N1`, the log partition coefficient (logP) came to 0.93.
`O=C(O)CCCC1=NS(=O)(=O)c2ccc(C(F)(F)F)cc2N1` came in with a logP of 1.24.
`O=C(O)CCSC1=NS(=O)(=O)c2cc(Cl)cc(Cl)c2N1` registered a log partition coefficient (logP) of 1.79.
On to `O=C(O)CCC1=NS(=O)(=O)c2cc(Cl)cc(Cl)c2N1`, for which the log partition coefficient (logP) came to 1.04.
With `O=C(O)CCSC1=NS(=O)(=O)c2cc(Cl)ccc2N1`, the lipophilicity (logP) amounted to 1.43.
Under `O=C(O)CSC1=NS(=O)(=O)c2cc(Cl)cc(Cl)c2N1` stands 1.09; under `O=C(O)CSC1=NS(=O)(=O)c2cc(Br)ccc2N1`, 0.92; under `O=C(O)CCCC1=NS(=O)(=O)c2cc(Cl)c(Cl)cc2N1`, 1.8.
Turning to `O=C(O)CCCC1=NS(=O)(=O)c2cc(Br)cc(Br)c2N1`, the log partition coefficient (logP) came out at 1.51.
For the molecule `COc1ccc2c(c1)NC(CCCC(=O)O)=NS2(=O)=O`, the lipophilicity (logP) amounted to 0.12.
The result for `COc1ccc2c(c1)NC(SCCC(=O)O)=NS2(=O)=O` reads 0.96.
The result for `O=C(O)CCC1=NS(=O)(=O)c2cc(Br)cc(Br)c2N1` reads 1.35; that for `O=C(O)CSC1=NS(=O)(=O)c2ccccc2N1`, 0.18.
The result for `COc1ccc2c(c1)NC(SCC(=O)O)=NS2(=O)=O` reads 0.37.
Regarding `O=C(O)CCSC1=NS(=O)(=O)c2ccc(C(F)(F)F)cc2N1`, the log partition coefficient (logP) was 1.96.
Under `O=C(O)CCC1=NS(=O)(=O)c2cc(Cl)c(Cl)cc2N1` stands 1.5.
The result for `O=C(O)CSC1=NS(=O)(=O)c2ccc(Cl)c(Cl)c2N1` reads 1.1.
Under `O=C(O)CCC1=NS(=O)(=O)c2ccccc2N1` stands -0.18; under `Cc1ccc2c(c1)NC(SCC(=O)O)=NS2(=O)=O`, 0.7.
In turn, `Cc1ccc2c(c1)NC(CCC(=O)O)=NS2(=O)=O` registered a log partition coefficient (logP) of 0.16.
On to `O=C(O)CCCC1=NS(=O)(=O)c2cc(Br)ccc2N1`, for which the lipophilicity (logP) is 1.02.

The logP is a log measure of how a compound divides between an organic and an aqueous phase. Low values mean a more hydrophilic compound, high ones a more lipophilic compound.
